Drawing on patent US12227520B2 (priority 2019, dated 2025), this text covers EC50 and CC50 for 15 compounds.

One data set deals with HIV-1 (IIIB). The experiment in a line: Antiviral assay in MT-4 cells (HIV MT-4 antiviral assay). In kind it is cell-based. As to conditions: Human immunodeficiency virus 1, IIIB, MT4, 120 h, HIV-1 (IIIB) in MT-4 cells, 5 days incubation; read-out: EC50. In outline: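 MT-4 cells infected with HIV-1 IIIB (1:250 diluted stock) and exposed to 1:3 serially diluted compound in RPMI with 10% FBS. Viability read by CellTiter-Glo luminescence after 5 days at 37° C; mock-infected cells and 5 μM AZT as controls.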

Data set [1] is described as follows: Cytotoxicity assay in MT-4 cells. The class given is cell-based, human. As to conditions: human, uninfected MT-4 cells, 5 days incubation; read-out: CC50. Summed up: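 Infected MT-4 cells (HIV-1 IIIB, fresh 1:250 dilution of concentrated stock) or mock-infected cells exposed to compounds for 5 days at 37 °C. Viability by CellTiter-Glo luminescence; 5 μM AZT positive control, no-drug negative control. Uninfected cells used for cytotoxicity, with 10 μM puromycin as base-level cytotoxicity control.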

The subject of another data set is pLai RLuc reporter virus. The experiment in a line: microbe, parasite or virus in culture. As to conditions: Human immunodeficiency virus 1, 72 h. In kind it is cell-based, HIV. Summed up:
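MT-4 cells pre-infected 2 h at 37 °C with pLai RLuc virus, then exposed to 1:3 serial dilutions of compound in RPMI/10% FBS with or without 50% human serum for 72 h at 37 °C. Renilla luminescence read-out; serum shift = EC50(HS/CCM)/EC50(CCM).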

The mark [2] stands for this setting: read-out: Antiviral Serum Shift RLuc 50% HS, HS/CCM (RPMI media, 10% FBS, 50% HS, 1% P/S), 72-h incubation.
The mark [3] stands for this setting: read-out: Antiviral Serum Shift RLuc CCM, CCM (RPMI media, 10% FBS, 1% P/S), 72-h incubation.

Like-named read-outs stand apart in the source and are kept apart here.

`O=C(NCc1c(F)cc(F)cc1F)c1cn2c(c(O)c1=O)C(=O)N1CC[C@H](F)CC[C@H]2C1` [Example 81-1, (5R,8S)-5-fluoro-13-hydroxy-1,12-dioxo-N-(2,4,6-trifluorobenzyl)-1,3,4,5,6,7,8,12-octahydro-2,8-methanopyrido[1,2-a][1,4]diazecine-11-carboxamide]: the EC50 worked out at 1.96 nM in the data set on HIV-1 (IIIB), 0.649 nM in the data set with pLai RLuc reporter virus (setting [2]) and 0.466 nM in the data set with pLai RLuc reporter virus (setting [3]). For the same compound, in data set [1], the half-maximal cytotoxic concentration (CC50) at 5 days is 23.9 µM.

Turning to `O=C(NCc1c(F)cc(F)cc1F)c1cn2c(c(O)c1=O)C(=O)N1CC[C@@H](F)CC[C@H]2C1` [Example 81-2, (5S,8S)-5-fluoro-13-hydroxy-1,12-dioxo-N-(2,4,6-trifluorobenzyl)-1,3,4,5,6,7,8,12-octahydro-2,8-methanopyrido[1,2-a][1,4]diazecine-11-carboxamide], the EC50 with HIV-1 (IIIB) was found to be 1.35 nM; in the data set with pLai RLuc reporter virus (setting [2]) it was 0.737 nM; in the data set with pLai RLuc reporter virus (setting [3]) it was 0.304 nM. In data set [1], the CC50 at 5 days came to 11.2 µM.

In the case of `O=C(NCc1c(F)cc(F)cc1F)c1cn2c(c(O)c1=O)C(=O)N1CCC[C@H](O)C[C@H]2C1` [Example 82-1, (6S,8S)-6,13-dihydroxy-1,12-dioxo-N-(2,4,6-trifluorobenzyl)-1,3,4,5,6,7,8,12-octahydro-2,8-methanopyrido[1,2-a][1,4]diazecine-11-carboxamide], the EC50 in the data set on HIV-1 (IIIB) amounted to 20.5 nM; in the data set on pLai RLuc reporter virus (setting [2]), 5.16 nM; in the data set with pLai RLuc reporter virus (setting [3]), 4.5 nM. For the same compound, the CC50 at 5 days in data set [1] is over 50 µM.

Turning to `O=C(NCc1c(F)cc(F)cc1F)c1cn2c(c(O)c1=O)C(=O)N1CCC[C@@H](O)C[C@H]2C1` [Example 82-2, (6R,8S)-6,13-dihydroxy-1,12-dioxo-N-(2,4,6-trifluorobenzyl)-1,3,4,5,6,7,8,12-octahydro-2,8-methanopyrido[1,2-a][1,4]diazecine-11-carboxamide], the values for the EC50 in the data set on HIV-1 (IIIB), with pLai RLuc reporter virus (setting [2]) and with pLai RLuc reporter virus (setting [3]) were 9.57 nM, 3 nM and 2.09 nM, respectively. Moreover, the CC50 at 5 days in data set [1] is over 50 µM.

`O=C(NCc1c(F)cc(F)cc1F)c1cn2c(c(O)c1=O)C(=O)N1CC[C@@H](O)CC[C@H]2C1` [Example 83-1, (5S,8S)-5,13-dihydroxy-1,12-dioxo-N-(2,4,6-trifluorobenzyl)-1,3,4,5,6,7,8,12-octahydro-2,8-methanopyrido[1,2-a][1,4]diazecine-11-carboxamide]: the EC50 in the data set on HIV-1 (IIIB) worked out at 39 nM; in the data set with pLai RLuc reporter virus (setting [2]), 7.08 nM; in the data set with pLai RLuc reporter virus (setting [3]), 8.19 nM. The CC50 at 5 days in data set [1] was over 50 µM.

On to `O=C(NCc1c(F)cc(F)cc1F)c1cn2c(c(O)c1=O)C(=O)N1CC[C@H](O)CC[C@H]2C1` [Example 83-2, (5R,8S)-5,13-dihydroxy-1,12-dioxo-N-(2,4,6-trifluorobenzyl)-1,3,4,5,6,7,8,12-octahydro-2,8-methanopyrido[1,2-a][1,4]diazecine-11-carboxamide], for which the results for the EC50 with HIV-1 (IIIB), in the data set with pLai RLuc reporter virus (setting [2]) and in the data set with pLai RLuc reporter virus (setting [3]) were 12.8 nM, 2.08 nM and 2.15 nM, respectively. Also, in data set [1], the CC50 at 5 days was over 50 µM.

For `C[C@H]1CC(F)C[C@H]2CN1C(=O)c1c(O)c(=O)c(C(=O)NCc3c(F)cc(F)cc3F)cn12` (stereo partly drawn) [Example 84, (3S,7S)-5-fluoro-12-hydroxy-3-methyl-1,11-dioxo-N-(2,4,6-trifluorobenzyl)-1,4,5,6,7,11-hexahydro-3H-2,7-methanopyrido[1,2-a][1,4]diazonine-10-carboxamide], the EC50 with HIV-1 (IIIB) worked out at 2.01 nM; with pLai RLuc reporter virus (setting [2]), 1.36 nM; in the data set on pLai RLuc reporter virus (setting [3]) it was 0.427 nM. Further, in data set [1], the CC50 at 5 days was determined as 37.2 µM.

As to `Cn1cc2c(n1)CC[C@H]1CN2C(=O)c2c(O)c(=O)c(C(=O)NCc3c(F)cc(F)cc3F)cn21` [Example 85-1, (11S)-6-hydroxy-2-methyl-5,7-dioxo-N-(2,4,6-trifluorobenzyl)-2,5,7,11,12,13-hexahydro-4,11-methanopyrazolo[4,3-e]pyrido[1,2-a][1,4]diazonine-8-carboxamide], the EC50 in the data set with HIV-1 (IIIB) worked out at 5.64 nM; in the data set on pLai RLuc reporter virus (setting [2]), 1.57 nM; with pLai RLuc reporter virus (setting [3]) it was 1.06 nM. In addition, in data set [1], the CC50 at 5 days is over 49.9 µM.

Turning to `O=C(NCc1c(F)cc(F)cc1F)c1cn2c(c(O)c1=O)C(=O)N1C[C@@H]2CCc2ccc(F)cc21` [Example 86-2, (12S)-3-fluoro-7-hydroxy-6,8-dioxo-N-(2,4,6-trifluorobenzyl)-6,8,13,14-tetrahydro-12H-5,12-methanobenzo[e]pyrido[1,2-a][1,4]diazonine-9-carboxamide], the EC50 came out at 1.1 nM with HIV-1 (IIIB), 0.5 nM in the data set on pLai RLuc reporter virus (setting [2]) and 0.262 nM in the data set with pLai RLuc reporter virus (setting [3]). For the same compound, in data set [1], the CC50 at 5 days is 13.7 µM.

Turning to `O=C(NCc1c(F)cc(F)cc1F)c1cn2c(c(O)c1=O)C(=O)N1Cc3cc(F)c(F)cc3C[C@H]2C1` [Example 88, (6S)-9,10-difluoro-1-hydroxy-2,14-dioxo-N-(2,4,6-trifluorobenzyl)-2,7,12,14-tetrahydro-6H-6,13-methanobenzo[f]pyrido[1,2-a][1,4]diazonine-3-carboxamide], the EC50 with HIV-1 (IIIB) is 1.61 nM; in the data set on pLai RLuc reporter virus (setting [2]) it was 1.62 nM; in the data set with pLai RLuc reporter virus (setting [3]) it was 0.269 nM. Also, the CC50 at 5 days in data set [1] is over 23.4 µM.

Turning to `O=C(NCc1ccc(F)cc1F)c1cn2c(c(O)c1=O)C(=O)N1Cc3cc(F)c(F)cc3C[C@H]2C1` [Example 89, (6S)—N-(2,4-difluorobenzyl)-9,10-difluoro-1-hydroxy-2,14-dioxo-2,7,12,14-tetrahydro-6H-6,13-methanobenzo[f]pyrido[1,2-a][1,4]diazonine-3-carboxamide], the figures for the EC50 with HIV-1 (IIIB), in the data set on pLai RLuc reporter virus (setting [2]) and with pLai RLuc reporter virus (setting [3]) were 2.38 nM, 4.39 nM and 0.669 nM, respectively. In addition, the CC50 at 5 days in data set [1] was over 47.9 µM.

In the case of `O=C(NCc1ccc(F)c(Cl)c1F)c1cn2c(c(O)c1=O)C(=O)N1C[C@@H]2CCc2ccc(F)cc21` [Example 90-2, (12S)—N-(3-chloro-2,4-difluorobenzyl)-3-fluoro-7-hydroxy-6,8-dioxo-6,8,13,14-tetrahydro-12H-5,12-methanobenzo[e]pyrido[1,2-a][1,4]diazonine-9-carboxamide], the EC50 was found to be 2.42 nM with HIV-1 (IIIB), 1.22 nM in the data set with pLai RLuc reporter virus (setting [2]) and 0.361 nM in the data set on pLai RLuc reporter virus (setting [3]). The CC50 at 5 days in data set [1] was over 20.8 µM.

Consider `O=C(NCc1ccc(F)cc1F)c1cn2c(c(O)c1=O)C(=O)N1C[C@H]2COc2cc(F)c(F)cc21` [Example 92-2, (6S)—N-(2,4-difluorobenzyl)-10,11-difluoro-1-hydroxy-2,14-dioxo-2,6,7,14-tetrahydro-6,13-methanobenzo[b]pyrido[2,1-f][1,4,7]oxadiazonine-3-carboxamide], for which the EC50 with HIV-1 (IIIB) was 2.01 nM; in the data set on pLai RLuc reporter virus (setting [2]), 0.772 nM; in the data set with pLai RLuc reporter virus (setting [3]), 0.309 nM. Also, the 50% cytotoxic concentration (CC50) at 5 days in data set [1] was over 39.3 µM.

`CC[C@]1(O)CCCN2C[C@H]1n1cc(C(=O)NCc3c(F)cc(F)cc3F)c(=O)c(O)c1C2=O` [Example 93]: the EC50 was determined as 2.24 nM with HIV-1 (IIIB), 1.55 nM in the data set on pLai RLuc reporter virus (setting [2]) and 0.462 nM in the data set on pLai RLuc reporter virus (setting [3]). In data set [1], the CC50 at 5 days is over 40.4 µM.

Regarding `O=C(NCc1c(F)cc(F)cc1F)c1cn2c(c(O)c1=O)C(=O)N1C[C@@H]2CSc2ccccc21` [Example 94, (6R)-1-hydroxy-2,14-dioxo-N-(2,4,6-trifluorobenzyl)-2,6,7,14-tetrahydro-6,13-methanobenzo[b]pyrido[2,1-f][1,4,7]thiadiazonine-3-carboxamide], the EC50 turned out to be 1.15 nM in the data set with HIV-1 (IIIB), 1.73 nM in the data set with pLai RLuc reporter virus (setting [2]) and 0.411 nM in the data set with pLai RLuc reporter virus (setting [3]). Moreover, the CC50 at 5 days in data set [1] was 13.7 µM.

As usually defined, the CC50 is the concentration that lowers cell viability or growth by half.
